Values quoted from earlier work as cited in patent publication US8097606B2, “Antiglucocorticoids for the treatment of catatonia” (Corcept Therapeutics, Inc., priority 2003, dated 2012).

- share of the daily dose excreted in the urine: less than 0.5%
SMILES: CC#C[C@]1(O)CC[C@H]2[C@@H]3CCC4=CC(=O)CCC4=C3[C@@H](c3ccc(N(C)C)cc3)C[C@@]21C [mifepristone, 17-β-hydroxy-11-β-(4-dimethyl-aminophenyl)-17-α-(1-propynyl)-estra-4,9-dien-3-one]
